Laboratory results as given in article PMC5479551, “Development of a range of fluorescent reagentless biosensors for ATP, based on malonyl-coenzyme A synthetase” (PLoS ONE, 2017).

Key:
Parent (Rho-MatB) = molecular target: T1, Parent (Rho-MatB) (Rhodopseudomonas palustris, UniProt Q6ND88, C106A/K488A/Q457C/R286C); experiment: Fluorescence titration (excitation 553 nm, emission 571 nm) of 0.5 µM fully purified Rho-MatB with ADP in 50 mM Hepes pH 7.0, 100 mM NaCl, 10 mM MgCl2, 0.3 mg/ml BSA, 20°C, quadratic binding fit.
T1 construct: N-terminal His6-tag, expressed in E. coli; two tetramethylrhodamines (5-IATR) on introduced cysteines
T1 sequence (Q6ND88 entry or part of it C106A/R286C/Q457C/K488A): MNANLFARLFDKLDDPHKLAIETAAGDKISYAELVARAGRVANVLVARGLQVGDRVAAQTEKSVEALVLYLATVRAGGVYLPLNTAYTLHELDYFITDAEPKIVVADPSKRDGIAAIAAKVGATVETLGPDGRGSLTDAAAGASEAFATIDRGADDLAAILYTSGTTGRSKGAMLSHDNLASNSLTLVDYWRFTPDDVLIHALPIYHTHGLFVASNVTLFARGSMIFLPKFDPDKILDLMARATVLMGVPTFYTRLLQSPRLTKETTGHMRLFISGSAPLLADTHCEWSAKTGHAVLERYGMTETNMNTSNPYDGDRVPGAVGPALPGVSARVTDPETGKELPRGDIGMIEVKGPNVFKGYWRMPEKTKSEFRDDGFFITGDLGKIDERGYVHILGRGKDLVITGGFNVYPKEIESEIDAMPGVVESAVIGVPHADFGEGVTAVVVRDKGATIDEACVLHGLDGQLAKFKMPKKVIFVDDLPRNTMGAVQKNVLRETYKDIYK
Description: (§1) Data from titrations to measure nucleotide binding were corrected for dilution and analyzed with a quadratic binding curve using Grafit software: F=Fmin+(Fmax−Fmin)×(Kd+L+P−(Kd+L+P)^2−4×P×L)/2×P where P and L are the total concentrations of protein and ligand, respectively, Kd is the dissociation constant, and Fmin and Fmax are the fluorescence intensities of the free and ligand- bound protein, respectively.
(§2) Fig 2 Nucleotide affinity for variants of Rho-MatB. Titration of ATP (circles) and ADP (triangles) to (A) 0.5 µM Rho-MatB T167A, (B) 0.5 μM Rho-MatB T303A; (C) 0.5 μM Rho-MatB S170A. Measurements are shown for one representative experiment and were in 50 mM Hepes pH 7.0, 100 mM NaCl, 10 mM MgCl2, 0.3 mg ml^-1 bovine serum albumin at 20°C. Excitation was at 553 nm, emission at 571 nm. The dissociation constants and fluorescence ratios were obtained using a quadratic binding equation (see Methods) and are listed in Table 2. The drop lines are to indicate the dissociation constants. Data are normalized to the intensity in the absence of nucleotide.
(§3) The affinity for ATP and ADP was determined by measuring the fluorescence at different concentrations of the nucleotide (Fig 2A and 2B). Both variants show similar fluorescent changes with ATP compared to the parent Rho-MatB, but the dissociation constants (Kd) are much higher (Table 2). In contrast, the affinity of ADP was much less affected by the mutations, remaining very weak (Table 2). The change in ATP affinity presumably reflects the importance of hydrogen-bonding interactions with the triphosphate, decreased by mutating to alanine.

S170A Rho-MatB = molecular target: T2, S170A Rho-MatB (Rhodopseudomonas palustris, UniProt Q6ND88, C106A/K488A/Q457C/R286C/S170A); experiment: as above
T2 construct: His6-tag, Rho-MatB background, two tetramethylrhodamines (5-IATR)
T2 sequence (Q6ND88 entry or part of it C106A/S170A/R286C/Q457C/K488A): as the sequence (Q6ND88 entry or part of it C106A/R286C/Q457C/K488A) above, with S170A counted along it
Description: as §1, §2, §3

T167A Rho-MatB = molecular target: T3, T167A Rho-MatB (Rhodopseudomonas palustris, UniProt Q6ND88, C106A/K488A/Q457C/R286C/T167A); experiment: as above
T3 construct: His6-tag, Rho-MatB background, two tetramethylrhodamines (5-IATR)
T3 sequence (Q6ND88 entry or part of it C106A/T167A/R286C/Q457C/K488A): as the sequence (Q6ND88 entry or part of it C106A/R286C/Q457C/K488A) above, with T167A counted along it
Description: as §1, §2, §3

T303A Rho-MatB = molecular target: T4, T303A Rho-MatB (Rhodopseudomonas palustris, UniProt Q6ND88, C106A/K488A/Q457C/R286C/T303A); experiment: as above
T4 construct: His6-tag, Rho-MatB background, two tetramethylrhodamines (5-IATR)
T4 sequence (Q6ND88 entry or part of it C106A/R286C/T303A/Q457C/K488A): as the sequence (Q6ND88 entry or part of it C106A/R286C/Q457C/K488A) above, with T303A counted along it
Description: as §1, §2, §3

pyruvate kinase = molecular target: T5, pyruvate kinase (Oryctolagus cuniculus, UniProt P11974); experiment: Steady-state pyruvate kinase assay using T303A variant ATP biosensor; type: biochemical, rabbit; details: 50 mM HEPES pH 7.2, 100 mM KCl, 10 mM MgCl2, 25°C; 500 μM phosphoenolpyruvate; 1 μM T303A rho-MatB as ATP sensor; read-out: Km for ADP
T5 construct: pyruvate kinase (rabbit muscle from Sigma); purchased Sigma; host or cells: rabbit muscle (tissue-derived)
T5 sequence (P11974 whole entry): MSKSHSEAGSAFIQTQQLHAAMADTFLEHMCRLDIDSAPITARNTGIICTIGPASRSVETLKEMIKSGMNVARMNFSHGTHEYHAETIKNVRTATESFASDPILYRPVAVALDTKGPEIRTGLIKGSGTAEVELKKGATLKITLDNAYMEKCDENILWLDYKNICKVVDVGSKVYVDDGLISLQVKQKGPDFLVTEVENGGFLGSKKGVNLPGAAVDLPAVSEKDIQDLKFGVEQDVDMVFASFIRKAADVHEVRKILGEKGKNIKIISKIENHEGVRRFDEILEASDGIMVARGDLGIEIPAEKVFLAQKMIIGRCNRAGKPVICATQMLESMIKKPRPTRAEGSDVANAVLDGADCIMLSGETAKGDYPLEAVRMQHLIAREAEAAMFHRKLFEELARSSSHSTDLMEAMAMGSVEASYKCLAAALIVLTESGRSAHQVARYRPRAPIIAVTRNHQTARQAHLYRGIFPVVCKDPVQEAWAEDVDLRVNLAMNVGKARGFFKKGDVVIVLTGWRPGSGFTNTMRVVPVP
Experimental: Steady-state activity measurements of pyruvate kinase (rabbit muscle from Sigma) were obtained using fluorescence on a CLARIOstar microplate reader (BMG Labtech). Assays were set up in 100 μl or 40 μl using 96-well using 384-well polystyrene microplates (low-protein-binding, Corning, USA) respectively.
We show one type of steady-state assay using a weak-binding variant, namely T303A, and a well understood enzyme system. This variant was used to measure the Km for ADP with pyruvate kinase (Fig 7). This measurement would not have been possible with the original reagent, as it requires measurements with hundreds of micromolar ADP. The assay measured formation of ATP as a function of time and made use of calibrations of the fluorescence signal at 0 and 500 μM ADP.
Fig 7 Test assay, measurement of the Km of ADP with pyruvate kinase using T303A variant ATP biosensor. The assay was run in multiwell format in 50 mM HEPES buffer pH 7.2, 100 mM KCl, 10 mM MgCl2, 0.3 mg ml^-1 bovine serum albumin at 25°C. The assay components were 500 μM phosphoenolpyruvate, 0.005 unit ml^-1 pyruvate kinase, 1 μM T303A rho-MatB and the micromolar concentrations of ADP shown on the inset panel for an illustrative set of traces. The data are shown as ATP production rates, using calibrations done at 0–20 μM ATP at 0 μM ADP and with ADP to make 500 μM total nucleotide concentration. […]

Row | Compound | Kd (Parent (Rho-MatB)) | Kd (S170A Rho-MatB) | Kd (T167A Rho-MatB) | Kd (T303A Rho-MatB) | Km (pyruvate kinase)
1 | Nc1ncnc2c1ncn2[C@@H]1O[C@H](COP(=O)(O)OP(=O)(O)O)[C@@H](O)[C@H]1O [ADP, adenosine 5'-diphosphate] | 428 ± 50 µM | 887 ± 25 µM | 900 ± 28 µM | 1840 ± 114 µM | 
2 | Nc1ncnc2c1ncn2[C@@H]1O[C@H](COP(=O)(O)OP(=O)(O)O)[C@@H](O)[C@H]1O [ADP] |  |  |  |  | 56 ± 4 µM
